Experimental data taken from patent publication US12558356B2, “Immunophilin binding agents and uses thereof” (The Regents of the University of California, priority 2019, dated 2026).
Read-outs that look alike come from different tables or passages of the source.

Columns and labels:
[1] = biological target: FKBP12 (Homo sapiens (Human), UniProt P62942); assay: FKBP12 binding assay (fluorescence polarization)
[2] = tested on: p-S6 level in MCF7 cells; assay: Western blot of p-S6 level in MCF7 cells after combination treatment with Rapa/Rapalink and candidate compound (blockade score); type: cell-based; conditions: 24 h, p-S6 level as fraction of DMSO control; for RapaLink-1 Blockade: 10 nM Rapalink + 10 μM candidate compound; for Rapamycin Blockade: 10 nM Rapa + 10 μM candidate compound
[3] = tested on: p-Tyr signaling in Jurkat cells; assay: Phosphotyrosine / TCR signaling in Jurkat cells (Western blot); type: cell-based; conditions: Jurkat cells, 100 nM, 1 h, washed 3 times with PBS
Experimental: Jurkat cells (1×10^6/mL) were treated with 100 nM of the indicated compounds for 1 h, then were washed 3 times with PBS and resuspended in culture media. Samples were taken at the indicated time points and lysed immediately.

[4] = tested on: mTOR signaling in brain and skeletal muscle; assay: In vivo brain/periphery mTOR inhibition in mouse model, blocker combined with rapamycin or RapaLink-1; conditions: combination with rapamycin; muscle and brain

FKBP12, sequence (P62942 whole entry): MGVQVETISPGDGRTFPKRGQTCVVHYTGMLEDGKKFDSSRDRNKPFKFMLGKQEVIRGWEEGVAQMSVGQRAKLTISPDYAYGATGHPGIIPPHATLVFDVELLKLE

SMILES	Kd ([1]; read-out: Kd FKBP12) [nM]	Rapamycin Blockade [2]	also measured
CO[C@H]1C/C(C)=C/[C@@H](C/C=C/c2cccc[n+]2[O-])C(=O)C[C@H](O)[C@@H](C)[C@@H](/C(C)=C/[C@@H]2CC[C@@H](O)[C@H](OC)C2)OC(=O)[C@@H]2CCCCN2C(=O)C(=O)[C@]2(O)O[C@H]([C@@H](OC)C1)[C@@H](OC)C[C@H]2C [ZZY05-060]	0.62	–	RapaLink-1 Blockade [2]: 1 (20-40%)
CCC(C)(C)C(=O)C(=O)N1CCCC[C@H]1C(=O)O[C@H](CCc1ccc(OC)c(OC)c1)c1cccc(NCCN)c1 [ZZY02-032]	36.4	0 (<20%)	–
CO[C@H]1C/C(C)=C/[C@@H](C/C=C/c2cc[n+]([O-])cc2)C(=O)C[C@H](O)[C@@H](C)[C@@H](/C(C)=C/[C@@H]2CC[C@@H](O)[C@H](OC)C2)OC(=O)[C@@H]2CCCCN2C(=O)C(=O)[C@]2(O)O[C@H]([C@@H](OC)C1)[C@@H](OC)C[C@H]2C [ZZY05-061]	0.21	–	RapaLink-1 Blockade [2]: 0 (<20%)
CCC(C)(C)C(=O)C(=O)N1CCCC[C@H]1C(=O)O[C@H](CCc1ccc(OC)c(OC)c1)c1cccc(NC(=O)[C@H](C)N)c1 [ZZY01-059]	–	3 (>70%)	–
CCC(C)(C)C(=O)C(=O)N1CCCC[C@H]1C(=O)O[C@H](CCc1ccc(OC)c(OC)c1)c1cccc(NC(=O)CCC(=O)O)c1 [ZZY01-083]	–	1 (20-40%)	–
CCC(C)(C)C(=O)C(=O)N1CCCC[C@H]1C(=O)O[C@H](CCc1ccc(OC)c(OC)c1)c1cccc(OCCN)c1 [ZZY01-038]	9.4	1 (20-40%)	–
CO[C@H]1C/C(C)=C/[C@@H](CCCC(=O)N2CCN(c3cc(Nc4ncc(C(=O)Nc5c(C)cccc5Cl)s4)nc(C)n3)CC2)C(=O)C[C@H](O)[C@@H](C)[C@@H](/C(C)=C/[C@@H]2CC[C@@H](O)[C@H](OC)C2)OC(=O)[C@@H]2CCCCN2C(=O)C(=O)[C@]2(O)O[C@H]([C@@H](OC)C1)[C@@H](OC)C[C@H]2C [ZZY05-022]	–	–	durability of effect after washout [3]: durable after washout
CCC(C)(C)C(=O)C(=O)N1CCCC[C@H]1C(=O)O[C@H](CCc1ccc(OC)c(OC)c1)c1cccc(NC(=O)CCl)c1 [ZZY02-033]	–	0 (<20%)	–
CCC(C)(C)C(=O)C(=O)N1CCCC[C@H]1C(=O)O[C@H](CCc1ccc(OC)c(OC)c1)c1cccc(NC(=O)Cc2cccc[n+]2[O-])c1 [ZZY03-087]	28.8	3 (>70%)	In Vivo [4]: Blocks rapamycin in muscle, potentiates rapamycin in brain; RapaLink-1 Blockade [2]: 0 (<20%)
CCC(C)(C)C(=O)C(=O)N1CCCC[C@H]1C(=O)O[C@H](CCc1ccc(OC)c(OC)c1)c1cccc(NC(=O)CS)c1 [ZZY02-055]	63.8	0 (<20%)	–
CCC(C)(C)C(=O)C(=O)N1CCCC[C@H]1C(=O)O[C@H](CCc1ccc(OC)c(OC)c1)c1cccc(NC(=O)CN2CCOCC2)c1 [ZZY01-043]	15	3 (>70%)	–
CCC(C)(C)C(=O)C(=O)N1CCCC[C@H]1C(=O)O[C@H](CCc1ccc(OC)c(OC)c1)c1cccc(NC(=O)CCOCCN)c1 [ZZY03-084]	18.6	2 (40%-70%)	–
CCC(C)(C)C(=O)C(=O)N1CCCC[C@H]1C(=O)O[C@H](CCc1ccc(OC)c(OC)c1)c1cccc(NC(=O)CNC(=N)N)c1 [ZZY01-065]	37.8	2 (40%-70%)	–
CCC(C)(C)C(=O)C(=O)N1CCCC[C@H]1C(=O)O[C@H](CCc1ccc(OC)c(OC)c1)c1cccc(NC(=O)Cc2ccccn2)c1 [ZZY03-083]	31.1	3 (>70%)	RapaLink-1 Blockade [2]: 0 (<20%)
CO[C@H]1C/C(C)=C/[C@@H](CCCSC[C@H](N)C(=O)O)C(=O)C[C@H](O)[C@@H](C)[C@@H](/C(C)=C/[C@@H]2CC[C@@H](O)[C@H](OC)C2)OC(=O)[C@@H]2CCCCN2C(=O)C(=O)[C@]2(O)O[C@H]([C@@H](OC)C1)[C@@H](OC)C[C@H]2C [ZZY05-037]	–	–	Kd [1]: 8.7 nM; RapaLink-1 Blockade [2]: 1 (20-40%)
CCC(C)(C)C(=O)C(=O)N1CCCC[C@H]1C(=O)O[C@H](CCc1ccc(OC)c(OC)c1)c1cccc(NC(=O)CN)c1 [ZZY01-040]	21.3	3 (>70%)	–
C=CC(=O)Nc1cccc([C@@H](CCc2ccc(OC)c(OC)c2)OC(=O)[C@@H]2CCCCN2C(=O)C(=O)C(C)(C)CC)c1 [ZZY02-014]	64	3 (>70%)	–
CCC(C)(C)C(=O)C(=O)N1CCCC[C@H]1C(=O)O[C@H](CCc1ccc(OC)c(OC)c1)c1cccc(NC(=O)CNc2ccccn2)c1 [ZZY03-091]	37.3	2 (40%-70%)	–
